Source: the METLIN SMRT retention time set (Domingo-Almenara et al. 2019)

Experiment: gradient 5% acetonitrile 3 min, to 50% in 2 min, to 85% in 15 min, held 3 min, 100 µL/min
Settings: column: Zorbax Extend-C18 2.1 x 50 mm; eluents: water / acetonitrile, 0.1% formic acid
In short: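 Using water and acetonitrile that each contained 0.1% formic acid, mixtures of ~100 pure standards were separated at 100 μL/min on a Zorbax Extend-C18 column (2.1 × 50 mm, 1.8 μm). The HPLC fed a quadrupole time-of-flight mass spectrometer working in positive and negative ionization mode, with dead and dwell volumes of 40 μL and 900 μL. Data were acquired over 3 months. Retention time was read from computationally picked adduct peaks after manual inspection of each.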

| Compound | RP-LC retention time [s] |
| --- | --- |
| CCC(CC)C(=O)N1CCc2c(c(C(=O)N3CCCC(C(=O)Nc4ccccc4C)C3)nn2C)C1 (centres undefined) | 817 |
| O=S(=O)(C1CC1)N1CCCCC1c1nncn1Cc1ccccc1 (centres undefined) | 722 |
| CCN1C(=O)c2cc(S(=O)(=O)Nc3ccc(Cl)cc3F)ccc2Oc2cccnc21 | 1070 |
| CCC(C(=O)N1CCN(c2ncccn2)CC1)n1c2ccccc2c2cnn(C)c(=O)c21 (centres undefined) | 875 |
| COCCCNC(=O)Cn1ccc2c(SCc3ccc(C)cc3)nccc21 | 648 |
| CN(c1nccn2c(=O)n(CC(=O)Nc3ccc(F)cc3)nc12)C1CCCCC1 | 749 |
| CCCN(C)S(=O)(=O)c1cc(-c2nc(C(C)(C)C)cs2)cs1 | 1330 |
| CCCCN(C)C(=O)c1cnc(-c2ccc(C)cc2)nc1-c1ccncc1 | 968 |
| CCN(CC)CCNS(=O)(=O)c1cc(-c2[nH]ncc2C(=O)N2CCCC2)oc1C | 565 |
| CSc1ccc(CNC(=O)c2cn3c(n2)COCC3)cc1 | 663 |
| COc1ccc(Cl)cc1C(=O)Nc1ccc2c(c1)N(C)C(=O)C(C)(C)CO2 | 955 |
| O=C(Nc1cncc(-c2nc3ccccc3o2)c1)c1cccc(Cl)c1 | 1010 |
| CCOC(=O)c1c(C)oc(C)c(C(=O)OCC)c1=O | 780 |
| CCOc1ccc(-c2noc(CN3C(=O)COc4ccc(Cl)cc43)n2)cc1OC | 1050 |
| O=C(Nc1ccc(F)cc1F)[C@@H]1OCC(=O)N(C2CC2)[C@H]1c1ccccc1 | 785 |
| CCN1C(=O)COc2ccc(-c3nc(NC(=O)c4cccc(Cl)c4)sc3C)cc21 | 1110 |
| CCCCS(=O)(=O)N1CC(c2nc(C)no2)C2(CCOCC2)C1 (centres undefined) | 783 |
| CN(C)C[C@@H]1CN(S(C)(=O)=O)C[C@H]1NC(=O)CC1=CCCCC1 | 602 |
| COc1ccccc1NC(=O)NCCc1nc2cccnc2n1C1CCCCC1 | 743 |
| CCN1C(=O)COc2ccc(-c3noc(-c4ccc(OC)cc4OC)n3)cc21 | 1040 |
| CCN1CCC(CCNC(=O)C2CN(C(=O)c3cccs3)CC23CCCCC3)CC1 (centres undefined) | 625 |
| Cc1cc(C)cc(-c2nnc(Cc3nc(-c4ccccc4)no3)o2)c1 | 1130 |
| Cc1ccc(NC(=O)NCCC2CCN(S(=O)(=O)c3ccc(F)cc3)CC2)cc1 | 925 |

| Compound | RP-LC retention time [s] |
| --- | --- |
| CCCn1c(=O)c(C)nc2cc(-c3noc(C4CC(=O)N(c5ccc(C)cc5)C4)n3)ccc21 (centres undefined) | 927 |
| COc1ccc(-c2cc(C(=O)Nc3ccc(Cl)cc3)nn2C2CCS(=O)(=O)C2)cc1 (centres undefined) | 1020 |
| Cc1ccc(S(=O)(=O)CCc2noc(-c3cccc4[nH]ccc34)n2)cc1 | 887 |
| Cc1ccc(NC(=O)N2CCCC2c2nc(-c3cccc(F)c3)no2)c(C)c1 (centres undefined) | 1030 |
| O=C(c1noc2c1CCCC2)N1CCc2ccccc2C1 | 923 |
| CC(=O)Nc1ccc(N(Cc2nnc3n2CCCCC3)C(=O)Nc2ccc(Cl)cc2)cc1 | 690 |
| CCc1onc(C)c1C1CCCN1C(=O)c1ccccc1F (centres undefined) | 775 |
| CN(C)C[C@@H]1CN(Cc2ccccc2)C[C@H]1NS(=O)(=O)c1ccc(C#N)cc1 | 562 |
| Cc1cccc(CNC(=O)C2CCCN(c3cc(=O)n(C)c(=O)n3C)C2)c1 (centres undefined) | 701 |
| c1ccc(CSc2nc3ncncc3[nH]2)cc1 | 719 |
| COc1ccc(C(O)Cn2ccn3nc(-c4cc(C)ccc4C)cc3c2=O)cc1 (centres undefined) | 949 |
| CCCNc1cc(N2CCC(CCC(=O)NCc3ccc(Cl)cc3)CC2)ncn1 | 718 |
| O=S(=O)(c1ccc(F)cc1)N1CCC(n2cnnc2-c2ccccc2)CC1 | 774 |
| COc1ccc(-c2nc(C3CC(=O)N(c4ccc(Cl)cc4)C3)no2)cc1 (centres undefined) | 1060 |
| NC(=O)c1c(NC(=O)C2CCCN(C(=O)c3cc(F)cc(F)c3)C2)sc2c1CCCC2 (centres undefined) | 1230 |
| CCOC(=O)C1=C(CNc2ccc(F)cc2)NC(=O)NC1c1ccccc1 (centres undefined) | 868 |
| O=C(C1CCN(S(=O)(=O)Cc2ccc(Cl)cc2)CC1)N1CCOCC1 | 725 |
| Cc1ccc(CNC(=O)C2(C)CCN(S(=O)(=O)c3ccc(Br)s3)CC2)cc1 | 1050 |
| CCc1ccc2nc(Nc3ncc4c(n3)CC(c3ccc(OC)cc3)CC4=O)nc(C)c2c1 (centres undefined) | 820 |
| COCC(=O)NC1CCC12CCN(S(=O)(=O)c1c(C)nn(C)c1C)CC2 (centres undefined) | 657 |
| Cc1nc(-c2ccccc2OC2CN(S(=O)(=O)c3cccc4nsnc34)C2)no1 | 883 |
| CCCNC(=O)c1c(OCC2CC2)cc(=O)n2c1CCCCC2 | 683 |
| CCc1nc(-c2csc(S(=O)(=O)N3CCCC(C(=O)Nc4c(C)cccc4C)C3)c2)no1 (centres undefined) | 1010 |

| Compound | RP-LC retention time [s] |
| --- | --- |
| CCNC(=O)c1nc(N(C)C)c2c(C)scc2n1 | 593 |
| Cc1ccc(CC(=O)NC(CC(C)C)C(=O)Nc2nc3ccccc3[nH]2)cc1 (centres undefined) | 786 |
| CCOC(=O)c1[nH]c(C)c(CCC(=O)N2CCC(C(=O)NC3CC3)CC2)c1C | 650 |
| COc1ccc(N2CC(c3nc(-c4ccc(Br)cc4)no3)CC2=O)cc1 (centres undefined) | 1050 |
| COc1cc(OC)c(NS(=O)(=O)c2cc(-c3cc(C(F)(F)F)[nH]n3)sc2C)cc1Cl | 1020 |
| O=C(C1CCCN(c2cnc3nccnc3c2)C1)N1CCN(c2ccccn2)CC1 (centres undefined) | 568 |
| CC(C)c1noc(COC2CCN(C(=O)NCc3ccco3)CC2)n1 | 739 |
| COc1ccc(C(=O)N2CCCN(c3nnc4ccc(Cl)cn34)CC2)cn1 | 579 |
| O=C(NCCc1csc(-c2cccc(F)c2)n1)Nc1c(F)cccc1F | 810 |
| CCOC(=O)CCNC(=O)NCc1nnnn1-c1ccc(C)c(C)c1 | 663 |
| Cc1nn(-c2ccc(N3CCCC3)nn2)c(C)c1CCC(=O)N1CCN(c2ncccn2)CC1 | 605 |
| O=C(NCc1csc(-c2ccccc2)n1)C1CCN(C(=O)Nc2ccccc2)CC1 | 766 |
| NC(=O)c1oc2ccccc2c1NC(=O)C1=COCCO1 | 672 |
| CNC(=O)C1CCCN(c2nc3ncn(CC(=O)Nc4ccc(C(=O)OC)cc4)c(=O)c3s2)C1 (centres undefined) | 649 |
| Cc1cccc(CN2CCN(CC(=O)NCc3ccc4c(c3)OCO4)C(=O)C2=O)c1 | 723 |
| COc1ccc(-n2ncc3c(=O)n(Cc4nc(-c5cccc(Br)c5)no4)cnc32)cc1 | 1110 |
| O=C(NC1CCSC1=O)c1ccccc1 (centres undefined) | 638 |
| CCCC(=O)Nc1ccc(S(=O)(=O)NCC(C)(O)COC)cc1 (centres undefined) | 619 |
| O=C(Cn1cnc2nc3c(cc2c1=O)CCCC3)Nc1ccccc1Cl | 720 |
| CC(C)S(=O)(=O)c1ccc(CC(=O)N2CCC(c3nnc(-c4ccco4)o3)CC2)cc1 | 669 |
| Cn1nccc1C(=O)Nc1sccc1-c1nc2ccccc2s1 | 1280 |
| COc1cccc(-c2ccc3nc(N4CCC(C(=O)NC5CC5)CC4)sc3n2)c1 | 861 |
| Cc1cc(C)cc(NC(=O)Nc2nccn(-c3ccc4c(c3)CCC4)c2=O)c1 | 1210 |

| Compound | RP-LC retention time [s] |
| --- | --- |
| CCC(=O)N(C1CCOCC1)C1CCN(S(=O)(=O)c2ccccc2F)CC1 | 797 |
| Cc1ccc(C)c(NC(=O)N2CCC3(CC2)NC(=O)c2ccccc2O3)c1 | 766 |
| C=C1C(=O)C23CC[C@@H]4C(C)(C(=O)OC)CCCC4(C)[C@@H]2CCC1(O)C3 (some centres undefined) | 902 |
| Cc1nc(-c2ccc(OC3CCN(C(=O)NC4CCCC4)C3)cc2)no1 (centres undefined) | 820 |
| CCOc1ccc(NC(=O)C2CCN(c3cc(N4CCSCC4)ncn3)CC2)cc1 | 693 |
| c1csc(-c2[nH]ncc2CN2CCN(c3cnn4cnnc4c3)CC2)c1 | 835 |
| CCc1ccc(CN2C(=O)CN(S(C)(=O)=O)CC2(C)C(=O)NCc2ccc(C)cc2)cc1 (centres undefined) | 963 |
| CCC(C)(C)NC(=O)c1cc2c(s1)N(CCOC)CCCC2 | 1020 |
| Cc1nnc2c(NC(=O)C3CCCC3)cccn12 | 644 |
| Cc1ccc(NC(=O)Nc2cccc(-c3ccc(N4CCOCC4)nn3)c2)c(C)c1 | 732 |
| CCN1CCCn2cc(S(=O)(=O)Nc3ccc(C)cc3F)cc2C1=O | 729 |
| Cn1c(C(=O)NCCCN2CCCC2=O)cc2c(-c3cccs3)nn(-c3ccccc3)c21 | 831 |
| Cc1ccn2c(Nc3ccc4c(c3)OCO4)c(-c3ccc(N(C)C)cc3)nc2c1 | 734 |
| O=C(Cn1c(C2CC(=O)N(C3CCCCC3)C2)nc2ccccc21)N1CCOCC1 (centres undefined) | 630 |
| Cc1csc(-c2cc(S(=O)(=O)Nc3cc(Cl)ccc3F)cn2CC(=O)N2CCCC2)n1 | 924 |
| Cc1nc(-c2csc(S(=O)(=O)N3CCCC(C(=O)NCCc4ccccc4)C3)c2)no1 (centres undefined) | 901 |
| CCN(CC)CCN1c2ccccc2Sc2ccc3ccccc3c21 | 893 |
| O=C(c1ccsc1)N1CCC2(CC1)NC(=O)N(Cc1ccccc1)C2=O | 754 |
| Cc1nn(-c2ccc(F)cc2)c(C)c1S(=O)(=O)N1CCC(C(=O)NC(C)(C)C)CC1 | 888 |
| CC(=O)N1CCc2cc(C)c(S(=O)(=O)N3CCOCC3)cc21 | 708 |
